# Reference: patent US9133179B2, “2-methoxy-pyridin-4-yl-derivatives” (Actelion Pharmaceuticals Ltd., priority 2011, dated 2015)
# How the values were obtained:
# circulating lymphocytes = assay: Assessment of in vivo efficacy: circulating lymphocytes after oral administration to Wistar rats; design: species or system rat; conditions: Rattus norvegicus, Lymphocyte, normotensive male Wistar rats, compared to vehicle group, read-out: Lymphocyte counts; for change in vivo at 10 mg/kg: 6 h after oral administration of 10 mg/kg
# Description: Assessment of In Vivo Efficacy
# The efficacy of the compounds of Formula (I) is assessed by measuring the circulating lymphocytes after oral administration of 3 to 30 mg/kg of a compound of Formula (I) to normotensive male Wistar rats. The animals are housed in climate-controlled conditions with a 12 h-light/dark cycle, and have free access to normal rat chow and drinking water. […] Full blood is subjected to hematology using Advia Hematology system (Bayer Diagnostics, Zurich, Switzerland).
# All data are presented as mean±SEM. Statistical analyses are performed by analysis of variance (ANOVA) using Statistica (StatSoft) and the Student-Newman-Keuls procedure for multiple comparisons. The null hypothesis is rejected when p<0.05.
# [1] = target: T1, human S1P1 (EDG1) receptor (Homo sapiens, UniProt P21453); assay: S1P1 β-arrestin recruitment (Tango) assay to determine EC50 values; format: cell-based; conditions: Tango-EDG1 bla U2OS cells, 16 h incubation
# T1 construct: host or cells: U2OS (Tango EDG1-bla U2OS)
# T1 sequence (P21453 whole entry): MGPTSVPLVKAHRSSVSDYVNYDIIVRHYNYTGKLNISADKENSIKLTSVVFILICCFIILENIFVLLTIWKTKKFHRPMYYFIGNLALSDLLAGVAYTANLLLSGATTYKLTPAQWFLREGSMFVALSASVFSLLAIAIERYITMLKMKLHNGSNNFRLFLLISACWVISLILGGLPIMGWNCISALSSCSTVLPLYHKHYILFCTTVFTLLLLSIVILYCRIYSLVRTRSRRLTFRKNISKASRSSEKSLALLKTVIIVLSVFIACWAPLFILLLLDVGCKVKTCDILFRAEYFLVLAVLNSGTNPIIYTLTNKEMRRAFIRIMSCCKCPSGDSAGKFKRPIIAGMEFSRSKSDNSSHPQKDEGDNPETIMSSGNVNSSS
# Excerpt: S1P1 β-Arrestin Recruitment (Tango) Assay to Determine EC50 Values
# Upon ligand activation, G protein-coupled receptors (GPCR) trigger two pathways that independently transduce signals to the cell: one through heterotrimeric GTP-binding proteins (G proteins) and one through β-arrestins. Agonist-induced GPCRs recruit β-arrestin proteins, which then bind to the carboxy-terminal domain of ligand-activated GPCRs. The amount of β-arrestin recruitment can be used to assess the potency and efficacy of GPCR activating ligands.
# To measure the potency and efficacy of compounds as S1P1 (EDG1) receptor agonists, Tango™-EDG1 bla U2OS cells (Invitrogen, USA, Catalog #K1520) are used. The Tango™ GPCR technology is based on GeneBLAzer β-lactamase reporter cell assays, which uses a mammalian-optimized β-lactamase reporter gene (bla) combined with a FRET-enabled substrate. The host cells, U2OS, stably express a human S1P1 (EDG1) receptor/transcription factor (TF) fusion protein. The cells also express a recombinant protease tagged β-arrestin protein, which is recruited to the S1P1 receptor upon ligand stimulation and specifically cleaves the S1P1-TF fusion protein. The released TF activates the β-lactamase (bla) reporter gene. To measure the reporter gene activity, cells are loaded with a fluorescent substrate containing two chemically coupled fluorophores, coumarin and fluorescein. […] In the presence of bla, the chemical bond is cleaved and FRET is inhibited. […] The amount of β-arrestin recruitment is proportional to the increase in blue fluorescence.
# Tango™-EDG1 bla U2OS cells are cultivated in McCoy's 5A containing 10% dialyzed FBS, 0.1 mM NEAA, 25 mM HEPES, 1 mM sodium pyruvate, 1% Penicillin/Streptomycin, 200 μg/ml zeocin, 50 μg/ml hygromycin and 100 μg/ml geneticin (Invitrogen, USA). Cells are detached with trypsin, resuspended in medium and then counted.
# Compounds (10 mM stock in DMSO) are diluted first in DMSO. The pre-diluted compounds solutions are then transferred into Assay Medium/0.1% fatty acid free BSA to reach a fourfold concentrated compound stock, which is applied to the cells to reach the final compound concentrations that range from 10 μM to 0.0005 nM (0.5% final DMSO). Cells are then incubated for 16 h at 37° C. and 5% CO2.
# rat trachea rings = assay: Measurement of isometric force development: constriction of rat trachea rings; conditions: for % trachea constriction at 3 μM / % trachea constriction at 10 μM / % trachea constriction at 10 nM / % trachea constriction at 30 nM / % trachea constriction at 0.3 μM / % trachea constriction at 30 μM: in % of the constriction induced by 50 mM KCl; for activation at 1 µM / activation at 0.1 µM: Rattus norvegicus; for activation at 1 µM: read-out: % trachea constriction at 1 μM; for activation at 0.1 µM: read-out: % trachea constriction at 0.1 μM
# Description: Measurement of Isometric Force Development
# Female Wistar rats are euthanized by exposure to CO2. The tracheae are excised and rings from the lower segments are prepared. […] A resting force of 2 g (20 mN) is applied to the ring preparation, and changes in force generation are measured using an isometric force recorder (EMKA Technologies Inc., Paris, France). Viability of rings is assessed by exposure to a depolarizing concentration of KCl (50 mM). Contraction of trachea is expressed as a percentage of the response to KCl.
# The compounds are prepared as stock solutions of 0.3 mM in pure DMSO.
SMILES,EC50 [1],concentration at which significant (or full) rat trachea constriction is shown (rat trachea rings; rat trachea rings),concentration at which significant (or KCl-comparable) rat trachea constriction is shown (rat trachea rings; rat trachea rings),change in vivo at 10 mg/kg (circulating lymphocytes),% trachea constriction at 3 μM (rat trachea rings),% trachea constriction at 10 μM (rat trachea rings),activation at 1 µM (rat trachea rings),% trachea constriction at 10 nM (rat trachea rings),% trachea constriction at 30 nM (rat trachea rings),% trachea constriction at 0.3 μM (rat trachea rings),activation at 0.1 µM (rat trachea rings),% trachea constriction at 30 μM (rat trachea rings),change in vivo at 3 mg/kg (circulating lymphocytes; 6 h after an oral dose of 3 mg/kg)
"COc1cc(-c2nc(-c3cc(C)c(OCCNCCO)c(Cl)c3)no2)cc(C2CCCC2)n1 [Example 45, 2-((2-(2-Chloro-4-(5-(2-cyclopentyl-6-methoxypyridin-4-yl)-1,2,4-oxadiazol-3-yl)-6-methylphenoxy)ethyl)amino)ethanol]",1.7 nM,10 µM,,-72%,<5%,52%,< 5%,,,,,,
"CCc1cc(-c2noc(-c3cc(OC)nc(C4CCCC4)c3)n2)cc(C)c1OCC(=O)NCCO [Example 13, 2-(4-(5-(2-Cyclopentyl-6-methoxypyridin-4-yl)-1,2,4-oxadiazol-3-yl)-2-ethyl-6-methylphenoxy)-N-(2-hydroxyethyl)acetamide]",2.4 nM,,,-77%,,<5%,< 5%,,,,,,
"CCc1cc(-c2noc(-c3cc(OC)nc(C4CCCC4)c3)n2)cc(C)c1OCCN1CC(C(=O)O)C1 [Example 2, 1-(2-(4-(5-(2-Cyclopentyl-6-methoxypyridin-4-yl)-1,2,4-oxadiazol-3-yl)-2-ethyl-6-methylphenoxy)ethyl)azetidine-3-carboxylic acid]",0.4 nM,,,-70%,,,93%,<5%,<5%,55%,< 5%,,
"COc1cc(-c2nc(-c3cc(C)c(OCC(=O)O)c(Cl)c3)no2)cc(C2CCCC2)n1 [Example 41, 2-(2-Chloro-4-(5-(2-cyclopentyl-6-methoxypyridin-4-yl)-1,2,4-oxadiazol-3-yl)-6-methylphenoxy)acetic acid]",1.1 nM,,,-49%,,,120%,<5%,10%,,56%,,
CCc1cc(-c2noc(-c3cc(OC)nc(C4CCCC4)c3)n2)cc(C)c1OC[C@@H](O)CNC(CO)CO [Example 4],6.6 nM,,,-65%,<5%,<5%,< 5%,,,,,<5%,
CCc1cc(-c2noc(-c3cc(OC)nc(C4CCCC4)c3)n2)cc(C)c1OC[C@@H](O)CNCCO [Example 3],8.3 nM,,,-25%,<5%,<5%,< 5%,,,,,<5%,
"COc1cc(-c2nc(-c3cc(Cl)c(OCCCC(=O)O)c(OC)c3)no2)cc(C2CCCC2)n1 [Example 35, 4-(2-Chloro-4-(5-(2-cyclopentyl-6-methoxypyridin-4-yl)-1,2,4-oxadiazol-3-yl)-6-methoxyphenoxy)butanoic acid]",0.627 nM,,,-71%,,,108%,<5%,<5%,,86%,,
"COc1cc(-c2nc(-c3cc(Cl)c(OCCNCC(=O)O)c(OC)c3)no2)cc(C2CCCC2)n1 [Example 51, 2-((2-(2-Chloro-4-(5-(2-cyclopentyl-6-methoxypyridin-4-yl)-1,2,4-oxadiazol-3-yl)-6-methoxyphenoxy)ethyl)amino)acetic acid]",0.7 nM,,,,,,,,,,,,-22%
"COc1cc(-c2nc(-c3cc(C)c(OCCCC(=O)O)c(Cl)c3)no2)cc(C2CCCC2)n1 [Example 40, 4-(2-Chloro-4-(5-(2-cyclopentyl-6-methoxypyridin-4-yl)-1,2,4-oxadiazol-3-yl)-6-methylphenoxy)butanoic acid]",0.05 nM,,,-65%,,,,,,,,,

# Second part, led by results:
EC50 [1],concentration at which significant (or full) rat trachea constriction is shown (rat trachea rings; rat trachea rings),concentration at which significant (or KCl-comparable) rat trachea constriction is shown (rat trachea rings; rat trachea rings),SMILES,change in vivo at 10 mg/kg (circulating lymphocytes),% trachea constriction at 3 μM (rat trachea rings),% trachea constriction at 10 μM (rat trachea rings),activation at 1 µM (rat trachea rings),% trachea constriction at 10 nM (rat trachea rings),% trachea constriction at 30 nM (rat trachea rings),% trachea constriction at 0.3 μM (rat trachea rings),activation at 0.1 µM (rat trachea rings),% trachea constriction at 30 μM (rat trachea rings),change in vivo at 3 mg/kg (circulating lymphocytes; 6 h after an oral dose of 3 mg/kg)
0.1 nM,,,"CCc1cc(-c2nc(-c3cc(OC)nc(C4CCCC4)c3)no2)cc(C)c1OCCCC(=O)O [Example 54, 4-(4-(3-(2-Cyclopentyl-6-methoxypyridin-4-yl)-1,2,4-oxadiazol-5-yl)-2-ethyl-6-methylphenoxy)butanoic acid]",-72%,,,76%,,<5%,55%,5.6%,,
0.072 nM,,,"CCc1cc(-c2noc(-c3cc(OC)nc(C4CCCC4)c3)n2)cc(C)c1OCCCNC(=O)CCC(=O)O [Example 32, 4-((3-(4-(5-(2-Cyclopentyl-6-methoxypyridin-4-yl)-1,2,4-oxadiazol-3-yl)-2-ethyl-6-methylphenoxy)propyl)amino)-4-oxobutanoic acid]",-65%,,,105%,,,50%,27%,,
1.6 nM,,,"CCc1cc(-c2noc(-c3cc(OC)nc(C4CCCC4)c3)n2)cc(C)c1OCC(=O)O [Example 5, 2-(4-(5-(2-Cyclopentyl-6-methoxypyridin-4-yl)-1,2,4-oxadiazol-3-yl)-2-ethyl-6-methylphenoxy)acetic acid]",-35%,,,124%,<5%,<5%,84%,66%,,
1.5 nM,1 µM,,"CCc1cc(-c2noc(-c3cc(OC)nc(C4CCCC4)c3)n2)cc(C)c1OCCNCC(=O)O [Example 7, 2-((2-(4-(5-(2-Cyclopentyl-6-methoxypyridin-4-yl)-1,2,4-oxadiazol-3-yl)-2-ethyl-6-methylphenoxy)ethyl)amino)acetic acid]",-70%,,,68%,<5%,,<5%,< 5%,,
0.2 nM,,0.3 µM,"CCc1cc(-c2noc(-c3cc(OC)nc(C4CCCC4)c3)n2)cc(C)c1OCCCC(=O)O [Example 6, 4-(4-(5-(2-Cyclopentyl-6-methoxypyridin-4-yl)-1,2,4-oxadiazol-3-yl)-2-ethyl-6-methylphenoxy)butanoic acid]",-53%,,,110%,<5%,<5%,91%,< 5%,,
0.04 nM,,,"CCc1cc(-c2noc(-c3cc(OC)nc(C4CCCC4)c3)n2)cc(C)c1OCCNCCC(=O)O [Example 1, 3-((2-(4-(5-(2-Cyclopentyl-6-methoxypyridin-4-yl)-1,2,4-oxadiazol-3-yl)-2-ethyl-6-methylphenoxy)ethyl)amino)propanoic acid]",-69%,,,96%,,,53%,< 5%,,
0.515 nM,,,"CCc1cc(-c2noc(-c3cc(OC)nc(C4CCCC4)c3)n2)cc(C)c1OCCCN(C)C(=O)CCC(=O)O [Example 34, 4-((3-(4-(5-(2-Cyclopentyl-6-methoxypyridin-4-yl)-1,2,4-oxadiazol-3-yl)-2-ethyl-6-methylphenoxy)propyl)(methyl)amino)-4-oxobutanoic acid]",-66%,,,,,,,,,
